Series [1] concerns hMLH1-proficient RKO cells. The experiment in a line: ROS level, H2DCFDA probe, MMR-proficient RKO. Type of series: cell-based, human. Conditions: 1 h of exposure, vs control. The protocol: Then, we confirmed whether the induction of cellular stress by 20d is related to MMR deficiency by exposing MMR-deficient and MMR-proficient cells to the compound for different times and measuring the ROS levels. Our results indicated a greater increase in the level of ROS after 1 h of exposure in 20d-treated MMR-deficient cells than in MMR-proficient cells (54.71 ± 2.70% and 22.27 ± 1.7%, respectively), in comparison to control (Fig. 7).
(§1) The […] ROS levels were determined using an H2DCFDA (2′,7′-dichlorodihydrofluorescein diacetate) probe (Thermo Fisher) following the manufacturer’s protocol. […] DMSO (1%, Merck) and 250 μM H2O2 were used as a negative and positive control, respectively. NAC (500 μM, Sigma-Aldrich) was used as an ROS scavenger to confirm the ROS activity. After treatment with 20d and 19b, cells were incubated with H2DCFDA at 37 °C for 30 min. Subsequently, cells were harvested by trypsinization, rinsed with PBS, and stained with 7-AAD (Thermo Fisher). Finally, the stained cells were analyzed by flow cytometry using a Guava easyCyte 8 cell sorter (Merck Millipore) and FlowJo v10 software.

Series [2] concerns HCT-116 cells. The experiment in a line: ROS level, H2DCFDA probe, flow cytometry, HCT-116. Type of series: cell-based. The procedure: Reactive oxygen species (ROS) affect the cellular redox homeostasis resulting in extensive and irreparable damage and ultimately cell death. Anticancer compounds with cytotoxic properties often cause disturbances in the redox state in cells. Therefore, we performed a time-dependent kinetic analysis of the intracellular ROS level in colon cancer cell lines after treatment with 20d.
as §1
ROS analysis was performed by seeding the cells into cover glass-bottom 24-well plates for live-cell imaging. Cells were treated with compounds and stained as described above for flow cytometry. […]
On the technique in general: A flow cytometer gives signals particle by particle.

Series [3] relates to HCT-116 cells. The experiment in a line: Cell cycle distribution analysis by flow cytometry (PI staining). Type of series: cell-based, human. The conditions noted are these: HCT-116, 24 to 72 h, vs vehicle. The procedure:
Based on their antiproliferative activity, 20d and 19b were evaluated for their effect on cell cycle phase distribution and DNA content by flow cytometry.
HCT-116 and A-549 cells were seeded into culture plates and allowed to attach overnight. Then, cells were incubated with the investigated compounds for the indicated time points. After incubation, the harvested cells were fixed with ice-cold 75% ethanol and stored overnight at − 20 °C. Next, cells were rehydrated with PBS in ice for 15 min and washed twice in PBS. Finally, cells were stained with […] propidium iodide (PI) and […] RNase A in PBS for 30 min at room temperature. Cell cycle distribution was determined using a Guava easyCyte 8 flow cytometer (Merck Millipore) and FlowJo v10 software.

The subject of series [4] is hMLH1-proficient (MMR+) RKO cells. The series is described as follows: MTT cell viability assay, hMLH1-proficient (MMR+) RKO. The series is classed as cell-based. Conditions: Homo sapiens, mean ± SD. The source says:
We further attempted to determine whether 20d-induced cancer cell death was related to the induction of ROS production in HCT-116 cells. For this purpose, we pretreated cells with N-acetyl-L-cysteine (NAC), which is a commonly used antioxidant and ROS scavenger. […] HCT-116 cell line has high-frequency microsatellite instability, which is associated with deficient DNA mismatch repair (MMR)[31]. The MMR system corrects DNA-mismatched and insertion–deletion loop bases generated during DNA replication. One of the key proteins involved in the MMR pathway is MLH1, which is mutated or epigenetically silenced in many MMR-deficient (MMR^–) cells, such as HCT-116[33]. To further determine the selectivity for MMR deficiency, we analyzed the cell viability of human MutL homologue 1 (hMLH1)-deficient (MMR^–) and hMLH1-proficient (MMR^+) RKO human colon carcinoma cell lines. The latter was established by transfecting hMLH1 cDNA into MMR^− RKO cell line[34]. In MMR^– RKO cells, the hMLH1 gene promoter was silenced transcriptionally by hypermethylation. […]
The viability of cells was determined in response to the newly synthesized compounds using the MTT (Sigma-Aldrich) assay. […] Next, the medium was removed, the formazan product formed was dissolved in 100 μl of DMSO, and the absorbance was determined at 540 nm using an ASYS UVM340 microplate reader (Biochrom Ltd.). […]
For orientation: Tetrazolium dyes change colour on reduction, which living cells bring about.

For series [5], the system named is HEK293 cells. The series is described as follows: MTT cell viability assay, HEK293. The series is classed as cell-based, human. Conditions: Homo sapiens, HEK293, IC50 ± SD.
Series [6] relates to A-549 cells. The series is described as follows: ROS level, H2DCFDA probe, flow cytometry, A-549. Type of series: cell-based, human. The conditions noted are these: A-549, IC50 concentration, 1-24 h.
The test system of series [7] is MCF-7 cells. The series is described as follows: MTT cell viability assay, MCF-7. Type of series: cell-based, human. Conditions: Homo sapiens, MCF7, 72 h, IC50 ± SD. The protocol:
(§2) To evaluate the effects of the newly synthesized tetrahydroquinolin-2(1H)-one derivatives on cell viability, we treated human colon cancer cells HCT-116, human breast cancer cells MCF-7, and human non-small cell lung cancer cells A-549 with different concentrations of the compounds for 72 h. After incubation, the MTT (3-(4,5-dimethylthiazol-2-yl)-2,5-diphenyltetrazolium bromide) assay was performed and the cytotoxic potency of compounds (expressed in IC50) on the cells was determined in comparison to control cells treated with 1% of dimethyl sulfoxide (DMSO) (Table 1). […] We also compared the activity of 20d and 19b to the reference control drug Cisplatin, which is widely used in chemotherapy.
(§3) A-549 (CCL-185) and MCF-7 ([…]) cells were cultured in RPMI-1640 medium, while HCT-116 (CVCL-427), (hMLH1)-deficient (MMR^–) and hMLH1-proficient (MMR^+) RKO cells were cultured in McCoy’s 5A medium. The culture media were supplemented with 10% fetal bovine serum, 2 mM L-glutamine, and antibiotics (penicillin 62.6 µg/ml and streptomycin 40 µg/ml). Cultivation of cell lines was carried out at 37 °C under a humidified atmosphere containing 5% CO2, and the cultures were routinely screened for Mycoplasma contamination. A-549, MCF-7, and HCT-116 cells were obtained from American Type Culture Collection (ATCC), while RKO colon carcinoma cells were a kind gift of Dr Timothy Kinsella (Brown University, USA).
(§4) The viability of cells was determined in response to the newly synthesized compounds using the MTT (Sigma-Aldrich) assay. Briefly, cells were seeded into 96-well plates and allowed to attach overnight. Then, cells were exposed to various concentrations of compounds for 24, 48 or 72 h. Negative controls were treated with the same amount of DMSO solvent (1%). After treatment, the MTT solution (0.4 mg/ml) was added to each well and allowed to react with cells for 2–3 h at 37 °C. Next, the medium was removed, the formazan product formed was dissolved in 100 μl of DMSO, and the absorbance was determined at 540 nm using an ASYS UVM340 microplate reader (Biochrom Ltd.). The IC50 value, which represents the concentration of the compound required to inhibit cell growth by 50% compared to vehicle, was calculated using GraphPad Prism 8 software based on the curves plotting survival against dose averaged from at least three independent experiments.

The subject of series [8] is A-549 cells. The experiment in a line: MTT cell viability assay, A-549. Type of series: cell-based, human. The procedure:
as §2, §3, §4

Where only a bound is given, the exact number is not on record here.

Consider `O=C(Nc1cccc(F)c1)OC1CCCc2c(-c3ccccc3)cc(=O)[nH]c21` (centres unmarked) [Compound 20d, (2-oxo-4-phenyl-5,6,7,8-tetrahydroquinolin-8-yl) N-(3-fluorophenyl)carbamate], for which the “increase in the level of ROS” value in series [1] is listed as 22.27 ± 1.7%. Further, the “increase in ROS level compared to vehicle” value in series [2] (HCT-116, IC50 concentration, 1-24 h) was ~ 30%; in series [6], roughly 5%. Further, the “cytotoxic effect after pretreatment with NAC” value in series [2] (HCT-116, NAC 500 μM) was “NAC diminished the cytotoxic effect”. For the same compound, in series [3], the “increase in the number of cells in the G0/G1 phase” value is less than 14%. The “number of cells in the S-phase” value in series [3] is given as “substantial decrease”. In addition, the IC50 in series [4] was 4.78 ± 0.38 µM; in series [5] it was greater than 50 µM; in series [7] it was greater than 50 µM; in series [8] (Homo sapiens, A549, MTT, 72 h, IC50 ± SD) it was 12.6 ± 0.54 µM. Further, the “fold lower concentration than Cisplatin suppressing 50% of cell viability” value in series [8] (A-549) turned out to be 5 fold.

The term IC50 denotes the concentration that inhibits the measured activity by half. Lower therefore signals inhibition by little substance.

The values above are taken from paper PMC9200803, “Design, synthesis, and biological evaluation of tetrahydroquinolinones and tetrahydroquinolines with anticancer activity” (Scientific Reports, 2022).
